Reference: patent US12559506B2, “Indazole based compounds and associated methods of use” (Arvinas Operations, Inc., priority 2021, dated 2026)
Where two headings read alike, the source gives them in different places.

How the values were obtained:
wildtype LRRK2 = biological target: T1, wildtype LRRK2 (Homo sapiens, UniProt Q5S007); assay: LRRK2 degradation assay, HiBit-tagged wildtype LRRK2 expressed from plasmid in HEK293 cells (Nano-Glo Dual-Luciferase); format: cell-based; conditions: 24 hours; for Dmax: read-out: **WT Dmax (%); for DC50: read-out: *WT DC50
T1 construct: expressed in transfected cells; host or cells: HEK293 (ATCC CRL-1573), transient transfection, mammalian expression vector with ubiquitin promoter
How it was run: (§1)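 HEK293 cells co-transfected with C-terminal HiBiT-tagged LRRK2 (WT or G2019S, ubiquitin promoter) and firefly luciferase, then dosed 24 h at 37 °C. HiBiT/firefly ratio normalized to DMSO median; DC50 and Dmax from per-plate curve fits, six replicates over two days.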

G2019S LRRK2 = biological target: T2, G2019S LRRK2 (Homo sapiens, UniProt Q5S007, G2019S); assay: LRRK2 degradation assay, HiBit-tagged G2019S LRRK2 expressed from plasmid in HEK293 cells (Nano-Glo Dual-Luciferase); format: cell-based; conditions: 24 hours
T2 construct: expressed in transfected cells; host or cells: HEK293 (ATCC CRL-1573), transient transfection, mammalian expression vector with ubiquitin promoter
How it was run: as §1

[1] = HiBit-tagged wildtype LRRK2, HEK293 cells
[2] = HiBit-tagged G2019S LRRK2, HEK293 cells
[3] = HiBit-tagged wildtype LRRK2 in HEK293 cells
[4] = HiBit-tagged G2019S LRRK2 in HEK293 cells

T1 sequence (Q5S007 whole entry): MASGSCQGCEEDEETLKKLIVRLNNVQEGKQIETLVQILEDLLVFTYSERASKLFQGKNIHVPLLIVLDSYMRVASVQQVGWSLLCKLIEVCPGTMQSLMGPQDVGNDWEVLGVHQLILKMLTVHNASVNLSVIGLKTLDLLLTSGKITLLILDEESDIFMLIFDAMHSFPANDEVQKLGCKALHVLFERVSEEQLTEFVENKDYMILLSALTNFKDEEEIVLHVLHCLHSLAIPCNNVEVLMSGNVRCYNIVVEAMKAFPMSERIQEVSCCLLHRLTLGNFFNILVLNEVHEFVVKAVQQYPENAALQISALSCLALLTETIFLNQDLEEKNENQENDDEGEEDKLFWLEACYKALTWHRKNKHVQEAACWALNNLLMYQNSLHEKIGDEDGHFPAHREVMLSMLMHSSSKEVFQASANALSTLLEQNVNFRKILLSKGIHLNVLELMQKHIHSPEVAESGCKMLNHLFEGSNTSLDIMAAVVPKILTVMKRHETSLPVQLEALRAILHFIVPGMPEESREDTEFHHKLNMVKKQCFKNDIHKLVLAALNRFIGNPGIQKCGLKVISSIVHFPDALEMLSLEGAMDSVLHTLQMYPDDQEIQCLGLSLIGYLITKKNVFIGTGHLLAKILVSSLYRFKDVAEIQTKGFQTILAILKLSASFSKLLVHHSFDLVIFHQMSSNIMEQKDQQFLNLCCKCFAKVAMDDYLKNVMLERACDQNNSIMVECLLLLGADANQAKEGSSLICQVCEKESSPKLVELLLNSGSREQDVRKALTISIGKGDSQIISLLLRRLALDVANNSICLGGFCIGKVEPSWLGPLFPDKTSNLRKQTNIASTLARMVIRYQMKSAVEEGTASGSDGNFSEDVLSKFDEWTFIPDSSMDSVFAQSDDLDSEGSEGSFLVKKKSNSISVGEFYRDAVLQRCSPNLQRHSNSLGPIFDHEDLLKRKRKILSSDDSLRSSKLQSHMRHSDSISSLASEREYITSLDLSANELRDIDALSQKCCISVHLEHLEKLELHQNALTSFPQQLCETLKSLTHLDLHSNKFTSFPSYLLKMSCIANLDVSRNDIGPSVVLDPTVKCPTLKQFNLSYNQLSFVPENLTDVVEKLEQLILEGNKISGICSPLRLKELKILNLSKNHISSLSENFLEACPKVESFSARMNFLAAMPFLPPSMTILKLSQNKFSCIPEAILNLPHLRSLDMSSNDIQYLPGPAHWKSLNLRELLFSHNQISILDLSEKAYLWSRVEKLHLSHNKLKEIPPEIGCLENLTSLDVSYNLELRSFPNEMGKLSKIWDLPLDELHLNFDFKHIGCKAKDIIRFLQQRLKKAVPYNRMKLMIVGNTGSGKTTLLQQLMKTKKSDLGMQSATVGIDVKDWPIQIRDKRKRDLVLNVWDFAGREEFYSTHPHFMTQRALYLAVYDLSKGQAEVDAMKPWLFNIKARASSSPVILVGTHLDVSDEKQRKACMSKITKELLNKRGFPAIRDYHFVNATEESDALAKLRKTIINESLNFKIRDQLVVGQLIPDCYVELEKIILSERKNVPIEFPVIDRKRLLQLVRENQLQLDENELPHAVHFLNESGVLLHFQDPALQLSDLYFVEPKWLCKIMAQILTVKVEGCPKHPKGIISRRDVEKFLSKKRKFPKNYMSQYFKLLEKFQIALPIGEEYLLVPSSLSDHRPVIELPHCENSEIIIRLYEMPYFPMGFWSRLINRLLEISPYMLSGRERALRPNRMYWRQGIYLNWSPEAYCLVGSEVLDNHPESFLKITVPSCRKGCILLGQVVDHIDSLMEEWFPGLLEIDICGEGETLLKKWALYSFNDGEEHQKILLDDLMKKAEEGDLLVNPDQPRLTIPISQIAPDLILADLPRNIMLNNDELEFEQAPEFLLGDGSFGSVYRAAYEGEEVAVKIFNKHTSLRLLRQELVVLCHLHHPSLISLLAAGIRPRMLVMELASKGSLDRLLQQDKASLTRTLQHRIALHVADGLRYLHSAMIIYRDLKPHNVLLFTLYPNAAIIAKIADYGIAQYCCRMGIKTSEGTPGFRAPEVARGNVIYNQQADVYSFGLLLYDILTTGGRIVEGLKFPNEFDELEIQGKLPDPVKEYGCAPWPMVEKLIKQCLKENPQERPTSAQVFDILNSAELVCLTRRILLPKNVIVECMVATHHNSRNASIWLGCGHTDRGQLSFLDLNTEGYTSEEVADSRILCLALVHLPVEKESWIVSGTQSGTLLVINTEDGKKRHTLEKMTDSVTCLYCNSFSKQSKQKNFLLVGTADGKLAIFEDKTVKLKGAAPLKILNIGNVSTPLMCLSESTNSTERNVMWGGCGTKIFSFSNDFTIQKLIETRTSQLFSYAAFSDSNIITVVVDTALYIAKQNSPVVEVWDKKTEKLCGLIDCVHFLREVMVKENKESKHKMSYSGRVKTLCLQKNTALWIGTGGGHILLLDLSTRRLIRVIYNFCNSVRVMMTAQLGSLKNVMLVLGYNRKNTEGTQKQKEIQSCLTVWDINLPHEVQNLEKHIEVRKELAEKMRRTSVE
T2 sequence (Q5S007 whole entry G2019S): as the sequence (Q5S007 whole entry) above, with G2019S counted along it

SMILES	Dmax (wildtype LRRK2; [1])	DC50 (wildtype LRRK2; [1])	DC50 (G2019S LRRK2; [2])	Dmax (G2019S LRRK2; [2])	Dmax (wildtype LRRK2; [3])	DC50 (wildtype LRRK2; [3])	DC50 (G2019S LRRK2; [4])	Dmax (G2019S LRRK2; [4])
CC1(Oc2ccc3[nH]nc(-c4cc(N5CCC(CN6CC7(CN(CC8CCN(c9ccc%10c(c9)C(=O)N(C9CCC(=O)NC9=O)C%10=O)CC8)C7)C6)CC5)ncn4)c3c2)CC1 (centres unmarked) [Compound 175, 2-(2,6-dioxo-3-piperidyl)-5-[4-[[2-[[1-[6-[5-(1-methylcyclopropoxy)-1H-indazol-3-yl]pyrimidin-4-yl]-4-piperidyl]methyl]-2,6-diazaspiro[3.3]heptan-6-yl]methyl]-1-piperidyl]isoindoline-1,3-dione]	50 to 70%	< 10 nM	< 10 nM	50 to 70%	–	–	–	–
CC1(Oc2ccc3[nH]nc(-c4cc(N5CCN(CC6CCN(CC7CCN(c8ccc9c(c8)C(=O)N(C8CCC(=O)NC8=O)C9=O)CC7)CC6)CC5)ncn4)c3c2)CC1 (centres unmarked) [Compound 76, 2-(2,6-dioxo-3-piperidyl)-5-[4-[[4-[[4-[6-[5-(1-methylcyclopropoxy)-1H-indazol-3-yl]pyrimidin-4-yl]piperazin-1-yl]methyl]-1-piperidyl]methyl]-1-piperidyl]isoindoline-1,3-dione]	–	–	–	–	< 50%	< 10 nM	< 10 nM	50 to 70%
C[C@H]1CN(c2cc(-c3[nH]nc4ccc(OC5(C)CC5)cc34)ncn2)CCN1CC1CCN(CC2CCN(c3cccc4c3CN(C3CCC(=O)NC3=O)C4=O)CC2)CC1 (stereo partly drawn) [Compound 145, 3-[4-[4-[[4-[[(2S)-2-methyl-4-[6-[5-(1-methylcyclopropoxy)-2H-indazol-3-yl]pyrimidin-4-yl]piperazin-1-yl]methyl]-1-piperidyl]methyl]-1-piperidyl]-1-oxo-isoindolin-2-yl]piperidine-2,6-dione]	–	–	–	–	< 50%	< 10 nM	< 10 nM	50 to 70%
CC1(Oc2ccc3[nH]nc(-c4cc(N5CCO[C@@H](CCN6CCN(CC7CCN(c8ccc9c(c8)C(=O)N(C8CCC(=O)NC8=O)C9=O)CC7)CC6)C5)ncn4)c3c2)CC1 (single isomer, unassigned) [Compound 154]	50 to 70%	< 10 nM	< 10 nM	50 to 70%	–	–	–	–
C[C@H]1CN(c2cc(-c3n[nH]c4ccc(OC5(C)CC5)cc34)ncn2)CCN1CCN1CCN(C(=O)C2CCN(c3ccc4c(c3)C(=O)N(C3CCC(=O)NC3=O)C4=O)CC2)CC1 (stereo partly drawn) [Compound 56, 2-(2,6-dioxo-3-piperidyl)-5-[4-[4-[2-[(2S)-2-methyl-4-[6-[5-(1-methylcyclopropoxy)-2H-indazol-3-yl]pyrimidin-4-yl]piperazin-1-yl]ethyl]piperazine-1-carbonyl]-1-piperidyl]isoindoline-1,3-dione]	–	–	–	–	≥ 70%	< 10 nM	< 10 nM	≥ 70%
CC1(Oc2ccc3[nH]nc(-c4cc(N5CCC(CN6CCN(CC7CN(c8ccc9c(c8)C(=O)N(C8CCC(=O)NC8=O)C9=O)C7)CC6)CC5)ncn4)c3c2)CC1 (centres unmarked) [Compound 133, 2-(2,6-dioxo-3-piperidyl)-5-[3-[[4-[[1-[6-[5-(1-methylcyclopropoxy)-1H-indazol-3-yl]pyrimidin-4-yl]-4-piperidyl]methyl]piperazin-1-yl]methyl]azetidin-1-yl]isoindoline-1,3-dione]	–	–	–	–	50 to 70%	< 10 nM	< 10 nM	50 to 70%
C[C@H]1CN(c2cc(-c3n[nH]c4ccc(OC5(C)CC5)cc34)ccn2)CCN1CC1(F)CCN(CC2CCN(c3ccc4c(c3)C(=O)N(C3CCC(=O)NC3=O)C4=O)CC2)CC1 (stereo partly drawn) [Compound 81, 2-(2,6-dioxopiperidin-3-yl)-5-{4-[(4-fluoro-4-{[(2S)-2-methyl-4-{4-[5-(1-methylcyclopropoxy)-1H-indazol-3-yl]pyridin-2-yl}piperazin-1-yl]methyl}piperidin-1-yl)methyl]piperidin-1-yl}-2,3-dihydro-1H-isoindole-1,3-dione]	–	–	–	–	< 50%	< 10 nM	< 10 nM	< 50%
CC1(Oc2ccc3n[nH]c(-c4ccnc(N5CCN(C(=O)C6CCN(CC7CCN(c8ccc9c(c8)C(=O)N(C8CCC(=O)NC8=O)C9=O)CC7)CC6)CC5)c4)c3c2)CC1 (centres unmarked) [Compound 85, 2-(2,6-dioxo-3-piperidyl)-5-[4-[[4-[4-[4-[5-(1-methylcyclopropoxy)-2H-indazol-3-yl]-2-pyridyl]piperazine-1-carbonyl]-1-piperidyl]methyl]-1-piperidyl]isoindoline-1,3-dione]	–	–	–	–	< 50%	< 10 nM	< 10 nM	< 50%
CC1(Oc2ccc3[nH]nc(-c4cc(N5CCN(CC(F)(F)C6CCN(CC7CCN(c8cccc9c8C(=O)N(C8CCC(=O)NC8=O)C9=O)CC7)CC6)CC5)ncn4)c3c2)CC1 (centres unmarked) [Compound 148, 4-[4-[[4-[1,1-difluoro-2-[4-[6-[5-(1-methylcyclopropoxy)-1H-indazol-3-yl]pyrimidin-4-yl]piperazin-1-yl]ethyl]-1-piperidyl]methyl]-1-piperidyl]-2-(2,6-dioxo-3-piperidyl)isoindoline-1,3-dione]	–	–	–	–	< 50%	10 to 50 nM	10 to 50 nM	50 to 70%
C[C@H]1CN(c2cc(-c3n[nH]c4ccc(OC5(C)CC5)cc34)ncn2)CCN1CCN1CCN(CC2CCN(c3ccc4c(c3)C(=O)N(C3CCC(=O)NC3=O)C4=O)CC2)CC1 (stereo partly drawn) [Compound 55, 2-(2,6-dioxopiperidin-3-yl)-5-{4-[(4-{2-[(2S)-2-methyl-4-{6-[5-(1-methylcyclopropoxy)-1H-indazol-3-yl]pyrimidin-4-yl}piperazin-1-yl]ethyl}piperazin-1-yl)methyl]piperidin-1-yl}-2,3-dihydro-1H-isoindole-1,3-dione]	–	–	–	–	≥ 70%	< 10 nM	< 10 nM	≥ 70%
C[C@H]1CN(c2cc(-c3n[nH]c4ccc(OC5(C)CC5)cc34)ncn2)CCN1CC1CCN(CCCOc2cccc3c2C(=O)N(C2CCC(=O)NC2=O)C3=O)CC1 (stereo partly drawn) [Compound 139, 2-(2,6-dioxo-3-piperidyl)-4-[3-[4-[[(2S)-2-methyl-4-[6-[5-(1-methylcyclopropoxy)-2H-indazol-3-yl]pyrimidin-4-yl]piperazin-1-yl]methyl]-1-piperidyl]propoxy]isoindoline-1,3-dione]	–	–	–	–	< 50%	10 to 50 nM	10 to 50 nM	< 50%
CC1(Oc2ccc3[nH]nc(-c4cc(N5CCN(CCN6CCN(CC7CCN(c8ccc9c(c8)C(=O)N(C8CCC(=O)NC8=O)C9=O)CC7)CC6)CC5)ncn4)c3c2)CC1 (centres unmarked) [Compound 54, 2-(2,6-dioxopiperidin-3-yl)-5-[4-({4-[2-(4-{6-[5-(1-methylcyclopropoxy)-1H-indazol-3-yl]pyrimidin-4-yl}piperazin-1-yl)ethyl]piperazin-1-yl}methyl)piperidin-1-yl]-2,3-dihydro-1H-isoindole-1,3-dione]	–	–	–	–	≥ 70%	< 10 nM	< 10 nM	≥ 70%
CC1(Oc2ccc3[nH]nc(-c4cc(N5CCC(C(=O)N6CCC(CC7CCN(c8ccc9c(c8)C(=O)N(C8CCC(=O)NC8=O)C9=O)CC7)CC6)CC5)ncn4)c3c2)CC1 (centres unmarked) [Compound 88, 2-(2,6-dioxo-3-piperidyl)-5-[4-[[1-[1-[6-[5-(1-methylcyclopropoxy)-1H-indazol-3-yl]pyrimidin-4-yl]piperidine-4-carbonyl]-4-piperidyl]methyl]-1-piperidyl]isoindoline-1,3-dione]	–	–	–	–	< 50%	10 to 50 nM	10 to 50 nM	50 to 70%
C[C@H]1CN(c2cc(-c3n[nH]c4ccc(OC5(C)CC5)cc34)ncn2)CCN1CC1CCN(CCC2CCN(c3ccc4c(c3)C(=O)N(C3CCC(=O)NC3=O)C4=O)CC2)CC1 (stereo partly drawn) [Compound 159, 2-(2,6-dioxo-3-piperidyl)-5-[4-[2-[4-[[(2S)-2-methyl-4-[6-[5-(1-methylcyclopropoxy)-1H-indazol-3-yl]pyrimidin-4-yl]piperazin-1-yl]methyl]-1-piperidyl]ethyl]-1-piperidyl]isoindoline-1,3-dione]	< 50%	< 10 nM	< 10 nM	50 to 70%	–	–	–	–
CC1(Oc2ccc3[nH]nc(-c4cc(N5CCC(CC6CCN(C(=O)C7CCN(c8ccc9c(c8)C(=O)N(C8CCC(=O)NC8=O)C9=O)CC7)CC6)CC5)ncn4)c3c2)CC1 (centres unmarked) [Compound 92, 2-(2,6-dioxo-3-piperidyl)-5-[4-[4-[[1-[6-[5-(1-methylcyclopropoxy)-1H-indazol-3-yl]pyrimidin-4-yl]-4-piperidyl]methyl]piperidine-1-carbonyl]-1-piperidyl]isoindoline-1,3-dione]	–	–	–	–	50 to 70%	< 10 nM	10 to 50 nM	50 to 70%
CC1(Oc2ccc3n[nH]c(-c4cc(N5CCN(CC6CC7(CCN(CC8CCN(c9ccc%10c(c9)C(=O)N(C9CCC(=O)NC9=O)C%10=O)CC8)CC7)C6)CC5)ncn4)c3c2)CC1 (centres unmarked) [Compound 177, 2-(2,6-dioxo-3-piperidyl)-5-[4-[[2-[[4-[6-[5-(1-methylcyclopropoxy)-2H-indazol-3-yl]pyrimidin-4-yl]piperazin-1-yl]methyl]-7-azaspiro[3.5]nonan-7-yl]methyl]-1-piperidyl]isoindoline-1,3-dione]	50 to 70%	10 to 50 nM	10 to 50 nM	50 to 70%	–	–	–	–
C[C@H]1CN(c2cc(-c3n[nH]c4ccc(OC5(C)CC5)cc34)ncn2)CCN1CC1CCN(CCCNc2cccc3c2CN(C2CCC(=O)NC2=O)C3=O)CC1 (stereo partly drawn) [Compound 142, 3-[4-[3-[4-[[(2S)-2-methyl-4-[6-[5-(1-methylcyclopropoxy)-1H-indazol-3-yl]pyrimidin-4-yl]piperazin-1-yl]methyl]-1-piperidyl]propylamino]-1-oxo-isoindolin-2-yl]piperidine-2,6-dione]	–	–	–	–	< 50%	50 to 100 nM	10 to 50 nM	< 50%
